Columns and labels:
[1] = molecular target: T1, Cyclooxygenase (Rattus norvegicus, UniProt P35355+Q63921); details: rbl-1
T1 sequence (P35355 whole entry): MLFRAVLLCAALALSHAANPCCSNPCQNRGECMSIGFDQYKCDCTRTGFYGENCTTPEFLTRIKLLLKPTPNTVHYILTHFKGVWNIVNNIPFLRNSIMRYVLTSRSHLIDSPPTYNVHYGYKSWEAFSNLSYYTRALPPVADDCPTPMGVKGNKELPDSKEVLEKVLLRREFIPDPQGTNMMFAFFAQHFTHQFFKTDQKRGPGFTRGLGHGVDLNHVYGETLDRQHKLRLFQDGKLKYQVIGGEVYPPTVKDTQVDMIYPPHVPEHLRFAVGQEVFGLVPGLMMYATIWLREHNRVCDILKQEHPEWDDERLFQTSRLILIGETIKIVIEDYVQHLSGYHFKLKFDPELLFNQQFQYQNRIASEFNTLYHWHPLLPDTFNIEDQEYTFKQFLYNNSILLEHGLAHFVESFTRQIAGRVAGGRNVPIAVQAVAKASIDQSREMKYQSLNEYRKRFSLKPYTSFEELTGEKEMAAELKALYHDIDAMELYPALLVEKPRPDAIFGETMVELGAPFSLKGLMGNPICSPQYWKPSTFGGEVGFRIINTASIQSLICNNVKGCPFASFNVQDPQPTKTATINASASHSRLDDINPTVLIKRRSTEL
T1 sequence (Q63921 whole entry): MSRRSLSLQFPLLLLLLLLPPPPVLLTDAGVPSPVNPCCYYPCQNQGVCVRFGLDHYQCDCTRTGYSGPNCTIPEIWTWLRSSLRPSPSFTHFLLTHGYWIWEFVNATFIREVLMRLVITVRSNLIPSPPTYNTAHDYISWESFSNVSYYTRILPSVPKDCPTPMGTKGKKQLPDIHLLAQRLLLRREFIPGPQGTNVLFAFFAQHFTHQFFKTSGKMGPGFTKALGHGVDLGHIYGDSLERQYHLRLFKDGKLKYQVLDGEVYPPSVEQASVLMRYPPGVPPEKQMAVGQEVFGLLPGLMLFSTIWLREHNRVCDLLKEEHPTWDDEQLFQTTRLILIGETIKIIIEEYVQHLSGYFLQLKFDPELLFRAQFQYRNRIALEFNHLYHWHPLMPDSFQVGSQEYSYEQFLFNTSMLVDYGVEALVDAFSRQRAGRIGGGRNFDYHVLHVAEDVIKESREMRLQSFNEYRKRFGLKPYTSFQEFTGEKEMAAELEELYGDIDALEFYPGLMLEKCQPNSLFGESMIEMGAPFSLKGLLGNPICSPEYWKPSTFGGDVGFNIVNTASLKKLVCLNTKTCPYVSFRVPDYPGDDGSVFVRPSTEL
Description: Tested for inhibition of cyclooxygenase (ARBC) in calcium-stimulated rat basophilic leukemia cells(RBL-1)

[2] = molecular target: T2, Polyunsaturated fatty acid 5-lipoxygenase (Rattus norvegicus, UniProt P12527); assay: Tested for inhibition of 5-Lipoxygenase (ARBL) in calcium-stimulated rat basophilic leukemia cells(RBL-1); type: cell-based
T2 sequence (P12527 whole entry): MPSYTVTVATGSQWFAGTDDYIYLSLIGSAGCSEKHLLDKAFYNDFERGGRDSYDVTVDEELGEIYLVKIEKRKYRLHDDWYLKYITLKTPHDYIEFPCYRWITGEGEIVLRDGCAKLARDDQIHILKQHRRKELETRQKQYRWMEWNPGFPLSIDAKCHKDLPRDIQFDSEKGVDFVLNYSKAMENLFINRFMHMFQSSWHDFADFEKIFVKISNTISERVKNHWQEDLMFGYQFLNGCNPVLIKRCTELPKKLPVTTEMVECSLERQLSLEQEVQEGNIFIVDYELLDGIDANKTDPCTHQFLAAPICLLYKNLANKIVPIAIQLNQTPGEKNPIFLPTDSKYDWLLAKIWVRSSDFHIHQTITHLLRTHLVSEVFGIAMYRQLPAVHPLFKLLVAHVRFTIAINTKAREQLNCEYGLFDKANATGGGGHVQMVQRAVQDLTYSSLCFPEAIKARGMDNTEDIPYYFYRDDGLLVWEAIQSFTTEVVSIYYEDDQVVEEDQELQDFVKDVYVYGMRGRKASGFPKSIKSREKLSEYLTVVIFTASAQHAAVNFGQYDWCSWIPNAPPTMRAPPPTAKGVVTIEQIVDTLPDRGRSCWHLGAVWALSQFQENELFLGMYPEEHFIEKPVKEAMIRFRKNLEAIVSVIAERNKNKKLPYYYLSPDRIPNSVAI

SMILES | IC50 [1] [nM] | IC50 [2] [nM]
CNC(=S)N(O)C(C)c1c(C)n(C(=O)c2ccc(Cl)cc2)c2ccc(OC)cc12 (configuration not stated) | 7000 | 570
CNC(=S)N(O)Cc1c(C)n(C(=O)c2ccc(Cl)cc2)c2ccc(OC)cc12 | 7100 | –
COc1ccc2c(c1)c(C(C)N(O)C(C)=O)c(C)n2C(=O)c1ccc(Cl)cc1 (configuration not stated) | 2400 | 830
COc1ccc2c(c1)c(C(C)N(O)C(N)=O)c(C)n2C(=O)c1ccc(Cl)cc1 (configuration not stated) | 890 | 1400
COc1ccc2c(c1)c(CN(O)C(N)=O)c(C)n2C(=O)c1ccc(Cl)cc1 | > 20000 | 340
COc1ccc2c(c1)c(CN(O)C(C)=O)c(C)n2C(=O)c1ccc(Cl)cc1 | 15000 | 1400
COc1ccc2c(c1)c(CC(=O)O)c(C)n2C(=O)c1ccc(Cl)cc1 [INDOMETHACIN] | – | > 100000
